Reference: US8618286B2, “Benzoxazines, benzothiazines, and related compounds having NOS inhibitory activity” (NeurAxon, Inc., priority 2008, dated 2013)

Legend:
[1] = test system: L5/L6 spinal nerve ligation model of neuropathic pain (Chung model); experiment: Chung L5/L6 spinal nerve ligation model of neuropathic pain; format: in vivo, rat; settings: rats, L5/L6 SNL
Description: (§1) The L5/L6 spinal nerve was surgically ligated and animals allowed to recover for a period of 7-10 days. During this period animals develop neuropathic pain. The reduction of paw withdrawal latency after an infrared thermal stimulus (post-SNL) was measured following the induction period for comparison with pre-surgery baseline levels (BL). Following drug administration, thermal hyperalgesia was measured at various time points.
as §1, with “tactile thresholds” for “paw withdrawal latency after an infrared thermal stimulus”, “tactile allodynia” for “thermal hyperalgesia”, “points with calibrated von-Frey filaments.” for “points.”
The experimental designs for the Chung Spinal Nerve Ligation SNL Model assay for neuropathic pain are depicted in FIGS. 1 and 2. Nerve ligation injury was performed according to the method described by Kim and Chung (Kim and Chung, Pain 50:355-363, 1992). This technique produces signs of neuropathic dysesthesias, including tactile allodynia, thermal hyperalgesia, and guarding of the affected paw. Rats were anesthetized with halothane, and the vertebrae over the L4 to S2 region were exposed. […]

[2] = target: Nitric oxide synthase (endothelial, human recombinant) eNOS (Homo sapiens (Human), UniProt P29474); experiment: Human eNOS enzyme assay ([3H]-L-arginine to L-citrulline conversion); format: biochemical
Description: (§2) nNOS (Human), eNOS (Human) and iNOS (Human) Enzyme Assay
(§3) Primary stock solutions of test compounds at a concentration of 6 mM were prepared from the 2 to 5 mg powder. The primary stock solutions of each test compound were prepared freshly in distilled water on the day of study to obtain a final concentration of 6 mM. For determination of IC50 values, 12 test compound concentrations were prepared as 3-fold serial dilutions. Concentration range of test compound utilized for nNOS were 0.001 to 300 μM and for eNOS were 0.003 to 1000 μM. The vehicle of the test compound or inhibitor was used as blank control. For non-specific activity, 100 μM L-NMMA was used. Runs using the IC50 concentration of L-NAME were done in parallel as controls.
(§4) All incubations are performed in duplicate
(§5) The reaction mixture was prepared on ice by adding the following components with a micropipette to a polypropylene microcentrifuge tube: • 10 μL of test compound, inhibitor or control (vehicle or L-NMMA) solution; • 25 μL of Reaction Buffer {25 mM Tris-HCl, 0.6 μM BH4, 0.2 μM FMN, 0.2 μM FAD}; • 5 μL of 10 mM NADPH solution {1 mM} (freshly prepared in 10 mM Tris-HCl (pH 7.4); • 5 μL of 6 mM CaCl2 {600 W}; • 5 μL of 1 mM Calmodulin {100 W}; and • 5 μL of 0.02 μg/μL nNOS or 0.12 μg/μL eNOS.
(§6) The above reaction mixture was pre-incubated at room temperature for 15 mins.
(§7) The reaction was started by the addition of the substrate (in 5 μL containing 1 μCi of [^3H]-L-Arginine+2.5 μM of unlabeled L-Arginine) to the reaction mixture. Total reaction volume is 60 μL.
(§8) The reaction was mixed using a vortex mixer and incubate the above reaction mixture at 37° C. in an incubator for 30 minutes.
(§9) To stop the reaction, 400 μL of ice-cold Stop Buffer was added at the end of the incubation period.
(§10) The reaction was then mixed using a vortex mixer, and the reaction samples were transferred to spin cups, which were centrifuged using a microcentrifuge, at 13,000 rpm for 30 sec. at room temperature.
(§11) The spin cups were removed from the holder, 450 μL of eluate (containing the unbound L-citrulline) were transferred to scintillation vials. 3 mL of scintillation fluid were added and the radioactivity was quantified in a liquid scintillation counter.
(§12) Data was analyzed using a Sigmoidal dose-response (variable slope) curve to determine the IC50 value of the test compound. Y=Bottom+(Top−Bottom)/(1+10^((Log IC50−X)*Hill Slope))

[3] = target: Nitric oxide synthase (neuronal, human recombinant) nNOS (Homo sapiens (Human), UniProt P29475); experiment: Human nNOS enzyme assay ([3H]-L-arginine to L-citrulline conversion); format: biochemical
Description: as §2, §3, §4, §5, §6, §7, §8, §9, §10, §11, §12

[4] = test system: Carrageenan model of inflammatory pain; experiment: Carrageenan model of inflammatory pain; format: in vivo, rat; settings: rats
Description: Inflammation was induced by injecting 0.1 mL of a 3% carrageenan suspension s.c. into the supplanter aspect of a hindpaw of lightly anesthetized rats. Typically, pronounced inflammation and edema were obvious within three hours of the injection. The carrageenan model is a model of inflammatory pain with two components: the first occurring immediately after injection provides information on the acute nociceptive response to a painful stimulus (in this case, the chemical carrageenan). There is also a second, neurogenic component that develops several hours later and reflects the type of neuronal activity due to the hyperalgesic and allodynic components as found in neuropathic pain. Considerable evidence has shown that NO and its enzymes are involved in the central mechanisms of inflammatory hyperalgesia at the spinal cord level and that peripheral inflammation can upregulate nNOS expression and induce iNOS expression in the spinal cord (Guhring et al., J. Neurosci. 20:6714-6720, 2000; Wu et al., Exp. Brain Res. 118:457-465, 1998; and Wu et al., Pain 94:47-58, 2001).

IC50 [2]: 33.5 µM
Selectivity eNOS/nNOS ([3]; ratio of human eNOS IC50 to human nNOS IC50): 531
IC50 ([3]; recombinant human nNOS): 0.06 µM
Structure (SMILES): CNCCN1CCSc2cc(NC(=N)c3cccs3)ccc21 [Compound 8, N-(4-(2-(methylamino)ethyl)-3,4-dihydro-2H-benzo[b][1,4]thiazin-7-yl)thiophene-2-carboximidamide]
reversal of tactile allodynia ([1]; i.p. 30 mg/kg, von Frey filaments): reversal of tactile allodynia
reversal of thermal hyperalgesia ([1]; i.p., text: e.g. 3 mg/kg, FIG. 3 legend: 30 mg/kg): clear effect
reversal of mechanical allodynia ([4]; ipsilateral paw, 60, 100, or 200 mg/kg p.o. (FIG. 6)): reversal of mechanical allodynia
reversal of thermal hyperalgesia (late phase), paw withdrawal latency ([4]; ipsilateral paw, text: i.p. dosing, FIG. 7 legend: 60, 100, or 200 mg/kg p.o.): reversal of thermal hyperalgesia
